For series [1] the following is noted: cited from earlier work.
A short description of series [2]: In vitro release by dynamic dialysis method. The class given is physicochemical. As to conditions: dialysis bag control.

Consider `CC(C)OC(=O)C(C)(C)Oc1ccc(C(=O)c2ccc(Cl)cc2)cc1` [fenofibrate], for which the “Increase in oral bioavailability” value in series [1] (fenofibrate in fast-dissolving solid dispersion formulation) was 4.4 fold. For the same molecule, the “Enhancement of oral bioavailability” value in series [1] (fenofibrate in liposomes containing sodium deoxycholate) is recorded as 5.13 fold.

As to Cyclosporine A [CyA], in series [2], the “Time for complete diffusion of CyA in solution across the dialysis bag” value is ≤ 1 h.

These data come from paper PMC3124400 (International Journal of Nanomedicine, 2011).
